Patent US6121323A, “Bishydroxyureas” (3M Innovative Properties Company, priority 1997, dated 2000)

Legend:
[1] = system: Leukotriene B4 production in whole human blood; experiment: In vitro human whole blood Leukotriene B4 inhibition; format: cell-based; settings: A23187 stimulated, read-out: IC50 (concentration producing 50% inhibition of LTB4 production)
Description: IN VITRO HUMAN WHOLE BLOOD LEUKOTRIENE B4 INHIBITION
The test method described below measures the ability of compounds to inhibit the production of Leukotriene B4 in whole human blood.
Whole human blood is collected by venipuncture into a 60 cc syringe containing 100 units of heparin.
compounds are disolved in dimethyl sulfoxide. Compounds are tested at concentrations of 100, 33, 11, 3.7, 1.2 and 0.41 μM. Each concentration is tested in duplicate.
Aliquots (1 μL) of compound solution are added to 1 mL polyethylene tubes followed by the addition of 500 μL portion of heparinized blood. The tubes are mixed thoroughly then allowed to preincubate at ambient temperature for 15 minutes. A 25 μL portion of 1 mM Calcium Ionophore A23187 in dimethyl sulfoxide/Tris buffer is added to the tubes. The tubes are mixed thoroughly then incubated at 37° C. for 30 minutes.
The tubes are centrifuged at 2000 rpm for 10 minutes. 100 μL portions of plasma are transferred to 1 mL polyethylene tubes containing 400 μL portions of methanol. The tubes are vortexed then frozen at -20° C. overnight.
The tubes are centrifuged for 10 minutes then 100 μL portions of methanol supernatant are transferred to a 96 well microtiter plate. 10 μL portions are transferred from this plate to a 96 well assay plate. Methanol dilutions of LTB4 standard curve are added to the assay plate. 10 μL portions of blank methanol/plasma supernatant are added to each standard curve well. The assay plate is vacuum dried at ambient temperature. The radioimmunoassay buffer is added, the plate is bath-sonicated for 5 minutes then assayed according to the manufacturer's instructions (Advanced Magnetics; Cambridge, Mass.). Inhibition of LTB4 production is calculated as the ratio of the amount of LTB4 formed in the presence (LTB4 +cpd) and absence (LTB4 no cpd) of compound according the equation below. [formula] IC50 values (concentration of compound producing a 50% inhibition of LTB4 production) are calculated by linear regression analysis of percentage inhibition versus log compound concentration plots.

[2] = system: Leukotriene C4 production in mouse peritoneal macrophages; experiment: In vitro mouse peritoneal macrophage Leukotriene C4 inhibition; format: cell-based; settings: zymosan stimulated, read-out: Percent Inhibition
Description: IN VITRO MOUSE PERITONEAL MACROPHAGE LEUKOTRIENE C4 INHIBITION
The test described below measures the ability of compounds to inhibit the production of Leukotriene C4 in mouse peritoneal macrophages.
Mice (female, CD-1, weighing 25 g) are euthanized by exposure to carbon dioxide. The pertoneal cavity is exposed by peeling back the abdominal skin. A 5 mL portion of media (M199 containing 1% fetal bovine serum, 100 units/mL of penicillin, 100 μg/mL streptomycin, 20 units/mL of heparin and no glutamine) is injected into the exposed peritoneal cavity of each mouse. The lavage fluid is removed and pooled to yield proximately 1×10^6 macrophages/mL. A 2 mL portion of lavage fluid is added to each well of a 24 well sterile multidish and the marcophages are allowed to adhere to the plate for 2 hours at 37° C. in a 5% carbon dioxide atmosphere. The media is removed and each well is washed with 2 mL of phosphate buffered saline (PBS). A 1 mL portion of media, without heparin, but containing 5 μCi/mL of 3H-myoinositol is added to each well and the plates are incubated overnight at 37° C. in a 5% carbon dioxide atmosphere. The media is removed and the cells are washed twice with 2 mL portions of PBS. A 1 mL portion of Puck's saline formulation A containing 1 mM calcium chloride, 1 mM magnesium chloride and 10 mM lithium chloride is added to each well. (The Puck's formulation is made first as a 10× solution which contains 4 g of potassium chloride, 80 g of sodium chloride and 10 g of glucose per liter. The Puck's saline formulation A is made using 10 mL of the 10× Puck's formulation, 0.47 mL of 7.5% sodium bicarbonate and 2 mL of 1M N-2-hydroxyethylpiperazine-N'-2-ethanesulfonic acid per 100 mL.)
Compounds are dissolved in dimethyl sulfoxide. Compounds are tested at concentrations of 10, 1 and 0.1 μM. Each concentration is tested in duplicate.
A 1 μL portion of compound solution or vehicle (DMSO) is added to each well and the plates are incubated for 15 minutes at 37° C. in a 5% carbon dioxide atmosphere. Zymosan is then added to provide a final concentration of 50 μg/mL in each well and the plate is incubated for 1 to 2 hours at 37° C. in a 5% carbon dioxide atmosphere.
Following incubation 200 μL portions of media are transferred to 12×75 mm tubes. The tubes are either assayed immediately or stored at -20° C. until they can be assayed.
The media is assayed for the presence of Leukotriene C4 by radioimmunoassay which is performed according to the manufacturer's instructions (Advanced Magnetics; Cambridge, Mass.). Inhibition of LTC4 production is calculated as the ratio of the amount of LTC4 formed in the presence (LTC4 +cpd) and absence (LTC4 no cpd)of compound according to the equation below. [formula] IC50 values (concentration of compound producing a 50% inhibition of LTC4 production) are calculated by linear regression analysis of percentage inhibition versus log compound concentration plots.

SMILES | IC50 [1] [nM] | inhibition at 0.1 µM [2] [%] | inhibition at 1 µM [2] [%] | inhibition at 10 µM [2] [%]
CCc1cc(Cc2cc(CC)c(NC(=O)N(C)O)c(CC)c2)cc(CC)c1NC(=O)N(C)O [Example 4, 4,4'-Methylenebis(1-hydroxy-1-methyl-3-(2,6-diethylphenyl)urea)] | 8200 | -24 | 6 | 67
CN(O)C(=O)Nc1ccc(C(c2ccc(NC(=O)N(C)O)cc2)(C(F)(F)F)C(F)(F)F)cc1 [Example 5, 4,4'-(2,2-Hexafluoropropane)bis(1-hydroxy-1-methyl-3-phenylurea)] | 700 | 91 | 100 | 100
CN(O)C(=O)Nc1ccc(Oc2ccc(NC(=O)N(C)O)cc2)cc1 [Example 6, 4,4'-Oxybis(1-hydroxy-1-methyl-3-phenylurea)] | 500 | 48 | 99 | 99
CN(O)C(=O)Nc1cccc(NC(=O)N(C)O)c1 [Example 7, 1,1'-(m-Phenylene)bis(3-hydroxy-3-methylurea)] | 550 | -19 | 7 | 98
CN(O)C(=O)Nc1cccc2c(NC(=O)N(C)O)cccc12 [Example 8, 1,1'-(1,5-Naphthalene)bis(3-hydroxy-3-methylurea)] | 700 | 55 | 76 | 91

More lines, main results first:

IC50 [1] [nM] | SMILES | inhibition at 0.1 µM [2] [%] | inhibition at 1 µM [2] [%] | inhibition at 10 µM [2] [%]
17200 | CN(O)C(=O)N[C@H]1CC[C@H](NC(=O)N(C)O)CC1 [Example 9, trans-1,4-Cyclohexanebis(3-hydroxy-3-methylurea)] | 1 | 1 | -6
2000 | O=C(NCCCCCCNC(=O)N(O)Cc1ccccc1)N(O)Cc1ccccc1 [Example 10, 1,1'-Hexamethylenebis(3-hydroxy-3-benzylurea)] | 7 | 94 | 94
350 | COc1cc(-c2ccc(NC(=O)N(C)O)c(OC)c2)ccc1NC(=O)N(C)O [Example 11] | 42 | 100 | 99
